According to article PMC6839601, “Discovery of selective, antimetastatic and anti-cancer stem cell metallohelices via post-assembly modification” (Chemical Science, 2019):

Legend:
HCT116 p53+/+ cells = assay: Inhibition of HCT116 colonosphere formation; assay type: cell-based, human; details: IC30 for 72 h, then 6 days
Experimental: Cells were treated with drug (IC30 concentration) for 72 h, washed, harvested with StemPro Accutase, and plated in ultra-low attachment 96-well culture plates (300 cells per well). Cells were cultured in for 6 days without disturbing the plates or replenishing the medium and the number/size of spheres were determined using an inverted microscope.
10. Anti-cancer stem cell study
10.1 Inhibition of HCT116 colonsphere formation
HCT116 p53+/+ (adherent) cells were treated with  Δ-[Fe 2L13]Cl4,  Δ-[Fe 2L3a3]Cl4 and
salinomycin (at their IC30 values) for 72 h. Cells were then washed with PBS, harvested by
StemProAccutase (Gibco) and plated in ultralow-attachment 96w culture plates (Corning)
(300cells per well). Cells were cultured in DMEM/F12 supplemented with B27 (-vitA, Gibco,
ngmL-1 FGF2 (Sigma, F0291) for 6 days without disturbing the plates and without replenishing
(§1) the medium. The number and size of spheres were determined using an inverted microscope.
Supplementary Table 3. Quantification of colonospheres formation in HCT116 p53+/+ cells untreated or treated […]
aThe results are expressed as mean ± SD of three independent experiments.
Supplementary Figure 27. Quantification of colonosphere formation in HCT116 p53+/+ colonospheres untreated
or treated with the investigated compounds at their respective IC30 values for 72 h. The results are expressed as […]

HCT116.CD133+ cells = assay: Inhibition of HCT116.CD133+ colonosphere formation; assay type: cell-based, human; details: IC30 values for 6 days
Experimental: (§2) Supplementary Figure 28. Representative images of the HCT116 p53 +/+ colonospheres untreated or treated
(§3) with the investigated compounds at their respective IC 30 values for 72 h. Scale bars: 100 µm.
(§4) colonosphere formation similarly or more effectively than  Δ-[Fe 2L13]Cl4 and salinomycin, a
(§5) well-established CSC-potent agent.
(§6) 10.2 Separation of HCT116.CD133 + and HCT116.CDD133 - cells by magnetically
(§7) activated cell sorting (MACS)
(§8) Positive selection with a single marker of CD133/1 (AC133) was used to enrich for CSCs. The
(§9) cells were harvested by non-enzymatic Cell Stripper (Corning), prepared into single cell
(§10) suspension (30 µm strainer) and counted. Approx. 2×10^7 cells were obtained for cell sorting.
(§11) For a selection of CD133 single positive cells, the cells were stained with the APC-conjugated
(§12) incubated for 20 min at 4-8 °C. The cells were washed with buffer (PBS, 0.5% BSA, pH 7.2;
(§13) prepared by diluting MACS BSA Stock Solution (130-091-376) 1:20 with auto MACS Rinsing
(§14) Solution (130-091-222)) and incubated with Anti-APC Micro Bead (Miltenyi Biotec, 130-090- […]
(§15) three-times in Buffer and analyzed on BD FACSVerse flow cytometer (San Jose, CA, USA);
(§16) the data were analyzed using BD FACSSuite software.
(§17) Supplementary Figure 29. Representative histograms displaying the red fluorescence emitted by anti-CD133- […]
as §1

HCT116.CD133- cells = assay: Inhibition of HCT116.CD133- colonosphere formation; assay type: cell-based, human; details: IC30 values for 6 days
Experimental: as §2, §3, §4, §5, §6, §7, §8, §9, §10, §11, §12, §13, §14, §15, §16, §17, §1

[1] = test system: CSC enriched HCT116.CD133+ cells; assay: Cytotoxicity in HCT116.CD133+ cells, SRB assay; assay type: cell-based; details: Homo sapiens, 72 h, read-out: IC50 HCT116.CD133+
Text: Supplementary Figure 30. Growth inhibitory effects in HCT116.CD133- and HCT116.CD133+ cancer cells.
Representative microscopy images of the HCT116.CD133- colonospheres in the absence (a) and presence of […]
salinomycin (b), Δ-[Fe 2L13]Cl4 (c), and Δ-[Fe 2L3a3]Cl4 (d), treated at their respective IC30 values for 6 days (scale […]
bar: 100 µm). Quantification of colonosphere formation from HCT116.CD133+ (e) and HCT116.CD133- (f,g) […]
under the same conditions. Data represent the mean value and SD from three independent experiments. p < 0.01, […]
10.5 Cytotoxicity in HCT116.CD133 + cells, SRB assay
Sorted HCT116.CD133+ cells were plated in 96w culture plates (TPP) (3000 cells per well) […]
and cultured for 3 days to allow cells to recover after sorting and to grow to the desired density.
Cells were then treated with different concentrations of the investigated compounds, […]
with Tris base (pH 10.5). The absorbance at 570 nm was measured using a SUNRISE Tecan […]
absorbance reader (Schoeller). The IC50 values were calculated from curves constructed by […]
plotting cell survival (%) versus drug concentration (μM). The reading values were converted […]
to the percentage of control (% cell survival). Cytotoxic effects were expressed as IC 50. […]
determined with SRB assay. a […]
aThe cells were treated for 72 h. The results are expressed as mean ± SD of three independent experiments. […]

HCT116p53+/+ = assay: Cytotoxicity in HCT116 p53+/+ cells, SRB assay; assay type: cell-based; details: Homo sapiens, HCT-116, 72 h, read-out: IC50 HCT116p53+/+
Na+/K+ ATPase = assay: Rubidium based assay for detection of Na+/K+ ATPase activity; parameters: species or system human; details: A2780 and HCT116 p53+/+ cell lines, 10 μM for 6 h, then RbCl (5.4 mM) 3 h, ICP-MS
Experimental: Cells were seeded in 6-well plates and incubated for 24 h at 37 °C in an atmosphere of 5% CO2. Cells were then incubated with drug for 6 h, and subsequently the medium was removed and cells were washed with PBS. Cells were then incubated with RbCl (5.4 mM) for 3 h, washed and counted. Rubidium content was determined by ICP-MS.
8.4 Real-time cell growth monitoring
Real-time Cell Analyzer (RTCA) (xCELLigence RTCA SP Instrument, ROCHE) was employed for growth monitoring of cells in the absence and the presence of tested compounds.
After the background of E-plates reading (100 µL medium), the cells were added (5x10^3 cells/well; 50 µL) and grown for 22-28 h. Tested compounds at varying concentrations were then added in 50 µL of media. The impedance was monitored for additional 80 h. An arbitrary unit CI (cell index) is a quantitative measure reflecting the status of the cells (number of attached cells and cell status such as morphology) in an electrode-containing well. Normalized CI at a given time point is given by dividing CI at the time point by CI at a reference time point.
8.5 Rubidium based assay for detection of Na +/K+ ATPase activity
The cells were seeded on 6-well plates (5× 10^5 cells/dish) and incubated overnight. The cells were treated with the investigated compounds for 6 h at 10 µM concentration. […] The cells were then harvested, washed trice with PBS, counted and pelleted. […]

Compound	Diameter of colonospheres (HCT116 p53+/+ cells; control 96 ± 20)	Spheres/1000cells (HCT116 p53+/+ cells; control 224 ± 14)	inhibition of colonosphere formation from HCT116.CD133+ cells (HCT116.CD133+ cells)	inhibition of colonosphere formation from HCT116.CD133- cells (HCT116.CD133- cells)	IC50 [1]	IC50 (HCT116p53+/+)	inhibition of Rb+ uptake (Na+/K+ ATPase)
CC[C@@H](C(=O)[C@@H](C)[C@@H](O)[C@H](C)[C@@H]1O[C@@H]([C@@H](CC)C(=O)O)CC[C@@H]1C)[C@H]1O[C@]2(C=C[C@@H](O)[C@]3(CC[C@@](C)([C@H]4CC[C@](O)(CC)[C@H](C)O4)O3)O2)[C@H](C)C[C@@H]1C [Salinomycin, salinomycin]	76 ± 17 µm	142 ± 14	effectively inhibit	do not significantly inhibit	1120 ± 230 nM	1480 ± 210 nM	–
C[C@@H]1O[C@@H](O[C@H]2C[C@@H](O)[C@]3(CO)[C@H]4[C@H](O)C[C@]5(C)[C@@H](C6=CC(=O)OC6)CC[C@]5(O)[C@@H]4CC[C@]3(O)C2)[C@H](O)[C@H](O)[C@H]1O [ouabain]	–	–	–	–	–	–	39–57%
